Results from PubChem BioAssay AID248 (DTP/NCI, 2004).
“And” between values parts separate entries of the source, which are not always exact repeats. Identical values can stand only once. Toxic doses and inconclusive results are not listed. Cut-off read from the data, not from the text of the source: active = T/C of 150% or more; inactive = T/C below 125%.

System: L1210 leukemia ip in BDF1 mice, survival T/C
Test: NCI In Vivo Anticancer Drug Screen. Data for tumor model L1210 Leukemia (intraperitoneal) in B6D2F1 (BDF1) mice
Conditions: endpoint: mean survival time, higher = longer survival
How it was run: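 Ratio derived from survival: compound-dosed mice over vehicle-dosed mice, all bearing a transplantable tumor.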

[1] = dose: 50.0 mg/kg/injection, schedule: Q01DX001 (ip), vehicle: carboxymethylcellulose (CMC)
[2] = dose: 100.0 mg/kg/injection, schedule: Q01DX001 (ip), vehicle: carboxymethylcellulose (CMC)
[3] = dose: 200.0 mg/kg/injection, schedule: Q01DX001 (ip), vehicle: carboxymethylcellulose (CMC)
[4] = dose: 400.0 mg/kg/injection, schedule: Q01DX001 (ip), vehicle: carboxymethylcellulose (CMC)
[5] = dose: 100.0 mg/kg/injection, schedule: Q04DX002 (ip), vehicle: Klucel (hydroxypropylcellulose) (HPC)
[6] = dose: 200.0 mg/kg/injection, schedule: Q04DX002 (ip), vehicle: Klucel (hydroxypropylcellulose) (HPC)
[7] = dose: 400.0 mg/kg/injection, schedule: Q04DX002 (ip), vehicle: Klucel (hydroxypropylcellulose) (HPC)

Measured: T/C

CCCCOc1c(Cl)c(Cl)c(OP(=O)(OCCCC)OCCCC)c(Cl)c1Cl
inactive: dose: 100.0 mg/kg/injection, schedule: Q04DX002 (ip), vehicle: other 103 % of control | dose: 200.0 mg/kg/injection, schedule: Q04DX002 (ip), vehicle: other 88 % of control | dose: 400.0 mg/kg/injection, schedule: Q04DX002 (ip), vehicle: other 103 % of control

N=C(N)c1ccc(-c2cc3ccc(C(=N)N)cc3s2)cc1
inactive: dose: 12.5 mg/kg/injection, schedule: Q04DX003 (ip), vehicle: saline with Tween-80 96 % of control | dose: 25.0 mg/kg/injection, schedule: Q04DX003 (ip), vehicle: saline with Tween-80 107 % of control | dose: 50.0 mg/kg/injection, schedule: Q04DX003 (ip), vehicle: saline with Tween-80 96 % of control

O=[N+]([O-])c1cccn2cnnc12
inactive: dose: 100.0 mg/kg/injection, schedule: Q01DX001 (ip), vehicle: acetone 92 % of control

Cc1cc2nc(C(O)C(O)C(O)C(O)c3nc4cc(C)c(C)cc4[nH]3)[nH]c2cc1C (stereo not given)
inactive: dose: 100.0 mg/kg/injection, schedule: Q01DX001 (ip), vehicle: other 98 % of control | dose: 200.0 mg/kg/injection, schedule: Q01DX001 (ip), vehicle: other 87 % of control | dose: 400.0 mg/kg/injection, schedule: Q01DX001 (ip), vehicle: other 104 % of control

O=C(O)c1cc([N+](=O)[O-])ccc1F
inactive: dose: 75.0 mg/kg/injection, schedule: Q01DX001 (ip), vehicle: acetone 95 % of control | dose: 150.0 mg/kg/injection, schedule: Q01DX001 (ip), vehicle: acetone 103 % of control

COc1cccc(NC(=S)N2CCCCC2)c1
inactive: dose: 100.0 mg/kg/injection, schedule: Q01DX009 (ip), vehicle: Klucel (hydroxypropylcellulose) (HPC) 108 % of control | dose: 200.0 mg/kg/injection, schedule: Q01DX009 (ip), vehicle: Klucel (hydroxypropylcellulose) (HPC) 116 % of control | dose: 400.0 mg/kg/injection, schedule: Q01DX009 (ip), vehicle: Klucel (hydroxypropylcellulose) (HPC) 102 % of control

CCCCCCCCCCC(N)C(=O)O (stereo not given)
inactive: dose: 12.5 mg/kg/injection, schedule: Q04DX002 (ip), vehicle: Klucel (hydroxypropylcellulose) (HPC) 104 % of control | dose: 25.0 mg/kg/injection, schedule: Q04DX002 (ip), vehicle: Klucel (hydroxypropylcellulose) (HPC) 91 % of control | dose: 50.0 mg/kg/injection, schedule: Q04DX002 (ip), vehicle: Klucel (hydroxypropylcellulose) (HPC) 88 % of control

O=C1C=C(C2OC(CO)C(O)C2O)C(=O)N1 (stereo not given)
inactive: dose: 6.0 mg/kg/injection, schedule: Q01DX015 (ip), vehicle: saline 113 % of control | dose: 6.0 mg/kg/injection, schedule: Q01DX Z (ip), vehicle: saline 115 % of control | dose: 6.2 mg/kg/injection, schedule: Q01DX001 (ip), vehicle: saline 97 % of control | dose: 9.0 mg/kg/injection, schedule: Q01DX001 (ip), vehicle: saline 101 % of control | dose: 9.0 mg/kg/injection, schedule: Q01DX015 (ip), vehicle: saline 113 % of control | dose: 9.0 mg/kg/injection, schedule: Q01DX Z (ip), vehicle: saline 122 % of control | dose: 12.0 mg/kg/injection, schedule: Q01DX001 (ip), vehicle: saline 100 % of control | dose: 12.5 mg/kg/injection, schedule: Q01DX001 (ip), vehicle: saline 109 % of control | dose: 15.0 mg/kg/injection, schedule: Q01DX001 (ip), vehicle: saline 106 % of control | dose: 15.0 mg/kg/injection, schedule: Q01DX015 (ip), vehicle: saline 122 % of control | dose: 15.0 mg/kg/injection, schedule: Q01DX Z (ip), vehicle: saline 110 % of control

CC(=O)Nc1cc(C)ns1
inactive: [1] 104 % of control | [2] 104 % of control | [3] 101 % of control | [4] 98 % of control

COC(OC)c1[nH]c(=S)[nH]c(=O)c1Cc1cccc(Cl)c1
inactive: dose: 100.0 mg/kg/injection, schedule: Q01DX009 (ip), vehicle: saline 100 % of control | dose: 400.0 mg/kg/injection, schedule: Q01DX009 (ip), vehicle: saline 113 % of control

CC(C)(C)C(Br)C(Br)Br (stereo not given) (tested in a mixture with another compound)
inactive: dose: 50.0 mg/kg/injection, schedule: Q01DX009 (ip), vehicle: saline with Tween-80 101 % of control | dose: 100.0 mg/kg/injection, schedule: Q01DX009 (ip), vehicle: saline with Tween-80 97 % of control | dose: 200.0 mg/kg/injection, schedule: Q01DX009 (ip), vehicle: saline with Tween-80 89 % of control

CCOC(=O)C1CC(=O)NC(N)=N1 (stereo not given)
inactive: dose: 100.0 mg/kg/injection, schedule: Q01DX Z (ip), vehicle: saline 95 % of control | dose: 200.0 mg/kg/injection, schedule: Q01DX Z (ip), vehicle: saline 100 % of control

NNc1ccccc1Cl
inactive: [1] 108 % of control | dose: 75.0 mg/kg/injection, schedule: Q01DX001 (ip), vehicle: other 102 % of control | [2] 97 % of control | dose: 150.0 mg/kg/injection, schedule: Q01DX001 (ip), vehicle: other 93 % of control | [3] 108 % of control

CN(C)CCCN1c2ccccc2Sc2ccccc21
inactive: dose: 4.6 mg/kg/injection, schedule: Q01DX009 (ip), vehicle: saline 98 % of control | dose: 9.3 mg/kg/injection, schedule: Q01DX009 (ip), vehicle: saline 105 % of control | dose: 9.37 mg/kg/injection, schedule: Q01DX009 (ip), vehicle: saline 96 % of control | dose: 18.0 mg/kg/injection, schedule: Q01DX001 (ip), vehicle: saline 107 % of control | dose: 18.0 mg/kg/injection, schedule: Q01DX009 (ip), vehicle: saline 112 % of control | dose: 18.0 mg/kg/injection, schedule: Q04DX003 (ip), vehicle: saline 116 % of control | dose: 18.75 mg/kg/injection, schedule: Q01DX009 (ip), vehicle: saline 104 % of control and 108 % of control | dose: 18.75 mg/kg/injection, schedule: Q04DX003 (ip), vehicle: saline 115 % of control | dose: 37.0 mg/kg/injection, schedule: Q01DX001 (ip), vehicle: saline 110 % of control | dose: 37.0 mg/kg/injection, schedule: Q01DX009 (ip), vehicle: saline 112 % of control | dose: 37.0 mg/kg/injection, schedule: Q04DX003 (ip), vehicle: saline 115 % of control | dose: 37.5 mg/kg/injection, schedule: Q01DX009 (ip), vehicle: saline 98 % of control and 122 % of control | dose: 37.5 mg/kg/injection, schedule: Q04DX003 (ip), vehicle: saline 102 % of control | dose: 75.0 mg/kg/injection, schedule: Q01DX001 (ip), vehicle: saline 105 % of control | dose: 75.0 mg/kg/injection, schedule: Q01DX009 (ip), vehicle: saline 122 % of control | dose: 75.0 mg/kg/injection, schedule: Q04DX003 (ip), vehicle: saline 102 % of control and 116 % of control

Nc1ccc([N+](=O)[O-])cc1Cl
inactive: [5] 122 % of control | [6] 105 % of control | [7] 97 % of control

Cc1nccnc1N/N=C\c1ccc(N(CCCl)CCCl)cc1
inactive: [2] 104 % of control | [3] 96 % of control | [4] 93 % of control

Cc1ccnc(NS(=O)(=O)c2ccc(N=Nc3ccc(N)nc3N)cc2)n1
inactive: dose: 100.0 mg/kg/injection, schedule: Q01DX001 (ip), vehicle: saline 100 % of control | dose: 200.0 mg/kg/injection, schedule: Q01DX001 (ip), vehicle: saline 102 % of control | dose: 400.0 mg/kg/injection, schedule: Q01DX001 (ip), vehicle: saline 100 % of control

CC(=O)Oc1cc(OC(C)=O)c2c(OC(C)=O)c3c(OC(C)=O)cc(C)cc3cc2c1
inactive: dose: 5.0 mg/kg/injection, schedule: Q01DX001 (ip), vehicle: saline 112 % of control | dose: 10.0 mg/kg/injection, schedule: Q01DX001 (ip), vehicle: saline 113 % of control

Cc1c(O)cc2c(c1O)C(=O)CC(c1ccc(O)cc1)O2 (stereo not given)
inactive: [5] 91 % of control | [6] 87 % of control | [7] 108 % of control
